Assay results published in ChEMBL document CHEMBL4138175, “Newly designed organotin(IV) carboxylates with peptide linkage: Synthesis, structural elucidation, physicochemical characterizations and pharmacological investigations” (Eur J Med Chem, 2018).
The source made the active and inactive calls. The calls are words filed in the database; no cut-off is given here.

What follows are substances tested on NCI-H157 (assay: Cytotoxicity against human NCI-H157 cells at 100 uM after 48 hrs by sulforhodamine B assay).
Format: functional
“(1,10-Phenanthroline) trimethylstannyl 2-(4-methoxy-2-nitrophenylcarbamoyl)benzoate” was tested, and the Activity was 55.5%. In the case of “(2,2'-Bipyridine) trimethylstannyl 2-(4-methoxy-2-nitrophenylcarbamoyl)benzoate”, the Activity is reported as 63.2%.

Each substance was assayed on NCI-H157 (assay: Cytotoxicity against human NCI-H157 cells at 10 uM after 48 hrs by sulforhodamine B assay).
Format: functional
“(1,10-Phenanthroline) trimethylstannyl 2-(4-methoxy-2-nitrophenylcarbamoyl)benzoate” was tested, and the Activity was 52.4%. “(2,2'-Bipyridine) trimethylstannyl 2-(4-methoxy-2-nitrophenylcarbamoyl)benzoate” was tested, and the Activity was 59.9%.

Each substance was assayed on NCI-H157 (assay: Cytotoxicity against human NCI-H157 cells at 1 uM after 48 hrs by sulforhodamine B assay).
Format: functional
“(1,10-Phenanthroline) trimethylstannyl 2-(4-methoxy-2-nitrophenylcarbamoyl)benzoate” was tested, and the Activity was 47.1%. Substance “(2,2'-Bipyridine) trimethylstannyl 2-(4-methoxy-2-nitrophenylcarbamoyl)benzoate” has an Activity of 57.8%.

What follows are substances tested on NCI-H157 (assay: Cytotoxicity against human NCI-H157 cells at 0.1 uM after 48 hrs by sulforhodamine B assay).
Format: functional
“(1,10-Phenanthroline) trimethylstannyl 2-(4-methoxy-2-nitrophenylcarbamoyl)benzoate” was tested, and the Activity was 44%. “(2,2'-Bipyridine) trimethylstannyl 2-(4-methoxy-2-nitrophenylcarbamoyl)benzoate” showed an Activity of 56.7%.

These substances were tested on Leishmania major (assay: Antileishmanial activity against Leishmania major promastigotes at 100 uM after 72 hrs by MTT assay relative to control).
Format: functional
For “(1,10-Phenanthroline) trimethylstannyl 2-(4-methoxy-2-nitrophenylcarbamoyl)benzoate”, the Activity was 52.7%. “(2,2'-Bipyridine) trimethylstannyl 2-(4-methoxy-2-nitrophenylcarbamoyl)benzoate” showed an Activity of 56.6%.

Each substance was assayed on Leishmania major (assay: Antileishmanial activity against Leishmania major promastigotes at 10 uM after 72 hrs by MTT assay relative to control).
Format: functional
Substance “(1,10-Phenanthroline) trimethylstannyl 2-(4-methoxy-2-nitrophenylcarbamoyl)benzoate” has an Activity of 58.4%. In the case of “(2,2'-Bipyridine) trimethylstannyl 2-(4-methoxy-2-nitrophenylcarbamoyl)benzoate”, the Activity is reported as 50.9%.

Each substance was assayed on Leishmania major (assay: Antileishmanial activity against Leishmania major promastigotes at 1 uM after 72 hrs by MTT assay relative to control).
Format: functional
“(1,10-Phenanthroline) trimethylstannyl 2-(4-methoxy-2-nitrophenylcarbamoyl)benzoate” showed an Activity of 57.9%. With “(2,2'-Bipyridine) trimethylstannyl 2-(4-methoxy-2-nitrophenylcarbamoyl)benzoate” the Activity was 44.3%.

Each substance was assayed on Leishmania major (assay: Antileishmanial activity against Leishmania major promastigotes at 0.1 uM after 72 hrs by MTT assay relative to control).
Format: functional
“(1,10-Phenanthroline) trimethylstannyl 2-(4-methoxy-2-nitrophenylcarbamoyl)benzoate” was tested, and the Activity was 56.2%. For “(2,2'-Bipyridine) trimethylstannyl 2-(4-methoxy-2-nitrophenylcarbamoyl)benzoate”, the Activity was 39.2%.

What follows are substances tested on Klebsiella pneumoniae (assay: Antibacterial activity against Klebsiella pneumoniae assessed as zone of inhibition after 24 to 48 hrs by well diffusion method).
Format: functional
Work on “(1,10-Phenanthroline) trimethylstannyl 2-(4-methoxy-2-nitrophenylcarbamoyl)benzoate” yielded an inhibition zone (IZ) of 27.7 mm. For “(2,2'-Bipyridine) trimethylstannyl 2-(4-methoxy-2-nitrophenylcarbamoyl)benzoate”, the “inhibition zone (IZ)” value was “inactive”.

Each substance was assayed on Streptococcus pyogenes (assay: Antibacterial activity against Streptococcus pyogenes assessed as zone of inhibition after 24 to 48 hrs by well diffusion method).
Format: functional
In the case of “(1,10-Phenanthroline) trimethylstannyl 2-(4-methoxy-2-nitrophenylcarbamoyl)benzoate”, the inhibition zone (IZ) is reported as 15 mm. With “(2,2'-Bipyridine) trimethylstannyl 2-(4-methoxy-2-nitrophenylcarbamoyl)benzoate” the “inhibition zone (IZ)” value was “inactive”.

The substances below were run on Staphylococcus epidermidis (assay: Antibacterial activity against Staphylococcus epidermidis assessed as zone of inhibition after 24 to 48 hrs by well diffusion method).
Format: functional
In the case of “(1,10-Phenanthroline) trimethylstannyl 2-(4-methoxy-2-nitrophenylcarbamoyl)benzoate”, the “inhibition zone (IZ)” value is reported as “inactive”. “(2,2'-Bipyridine) trimethylstannyl 2-(4-methoxy-2-nitrophenylcarbamoyl)benzoate” showed an inhibition zone (IZ) of 23.3 mm.

What follows are substances tested on Staphylococcus aureus (assay: Antibacterial activity against Staphylococcus aureus assessed as zone of inhibition after 24 to 48 hrs by well diffusion method).
Format: functional
“(1,10-Phenanthroline) trimethylstannyl 2-(4-methoxy-2-nitrophenylcarbamoyl)benzoate” gave an inhibition zone (IZ) of 5.66 mm. In the case of “(2,2'-Bipyridine) trimethylstannyl 2-(4-methoxy-2-nitrophenylcarbamoyl)benzoate”, the inhibition zone (IZ) is reported as 19.3 mm.

Each substance was assayed on Serratia marcescens (assay: Antibacterial activity against Serratia marcescens assessed as zone of inhibition after 24 to 48 hrs by well diffusion method).
Format: functional
Work on “(1,10-Phenanthroline) trimethylstannyl 2-(4-methoxy-2-nitrophenylcarbamoyl)benzoate” yielded an inhibition zone (IZ) of 20 mm. For “(2,2'-Bipyridine) trimethylstannyl 2-(4-methoxy-2-nitrophenylcarbamoyl)benzoate”, the inhibition zone (IZ) was 19.3 mm.

What follows are substances tested on Pseudomonas aeruginosa (assay: Antibacterial activity against Pseudomonas aeruginosa assessed as zone of inhibition after 24 to 48 hrs by well diffusion method).
Format: functional
For “(1,10-Phenanthroline) trimethylstannyl 2-(4-methoxy-2-nitrophenylcarbamoyl)benzoate”, the inhibition zone (IZ) was 11.3 mm. “(2,2'-Bipyridine) trimethylstannyl 2-(4-methoxy-2-nitrophenylcarbamoyl)benzoate” gave an inhibition zone (IZ) of 20.3 mm.

What follows are substances tested on Escherichia coli (assay: Antibacterial activity against Escherichia coli assessed as zone of inhibition after 24 to 48 hrs by well diffusion method).
Format: functional
For “(1,10-Phenanthroline) trimethylstannyl 2-(4-methoxy-2-nitrophenylcarbamoyl)benzoate”, the inhibition zone (IZ) was 20.7 mm. For “(2,2'-Bipyridine) trimethylstannyl 2-(4-methoxy-2-nitrophenylcarbamoyl)benzoate”, the inhibition zone (IZ) was 17.7 mm.

These substances were tested on Klebsiella pneumoniae (assay: Antibacterial activity against Klebsiella pneumoniae assessed as zone of inhibition by measuring activity index after 24 to 48 hrs by well diffusion method relative to tetracycline).
Format: functional, organism-based
“(1,10-Phenanthroline) trimethylstannyl 2-(4-methoxy-2-nitrophenylcarbamoyl)benzoate” showed an Activity index of 1.98.

These substances were tested on Klebsiella pneumoniae (assay: Antibacterial activity against Klebsiella pneumoniae assessed as zone of inhibition by measuring activity index after 24 to 48 hrs by well diffusion method relative to penicillin G).
Format: functional, organism-based
With “(2,2'-Bipyridine) trimethylstannyl 2-(4-methoxy-2-nitrophenylcarbamoyl)benzoate” the Activity_index was “inactive”.

Each substance was assayed on Klebsiella pneumoniae (assay: Antibacterial activity against Klebsiella pneumoniae assessed as zone of inhibition by measuring activity index after 24 to 48 hrs by well diffusion method relative to ampicillin).
Format: functional, organism-based
In the case of “(1,10-Phenanthroline) trimethylstannyl 2-(4-methoxy-2-nitrophenylcarbamoyl)benzoate”, the Activity index is reported as 4.61.

Each substance was assayed on Klebsiella pneumoniae (assay: Antibacterial activity against Klebsiella pneumoniae assessed as zone of inhibition by measuring activity index after 24 to 48 hrs by well diffusion method relative to amoxicillin).
Format: functional, organism-based
In the case of “(1,10-Phenanthroline) trimethylstannyl 2-(4-methoxy-2-nitrophenylcarbamoyl)benzoate”, the Activity index is reported as 4.61.

Each substance was assayed on Streptococcus pyogenes (assay: Antibacterial activity against Streptococcus pyogenes assessed as zone of inhibition by measuring activity index after 24 to 48 hrs by well diffusion method relative to tetracycline).
Format: functional, organism-based
For “(2,2'-Bipyridine) trimethylstannyl 2-(4-methoxy-2-nitrophenylcarbamoyl)benzoate”, the Activity_index was “inactive”.

Each substance was assayed on Streptococcus pyogenes (assay: Antibacterial activity against Streptococcus pyogenes assessed as zone of inhibition by measuring activity index after 24 to 48 hrs by well diffusion method relative to penicillin G).
Format: functional, organism-based
For “(2,2'-Bipyridine) trimethylstannyl 2-(4-methoxy-2-nitrophenylcarbamoyl)benzoate”, the Activity_index was “inactive”.

Each substance was assayed on Streptococcus pyogenes (assay: Antibacterial activity against Streptococcus pyogenes assessed as zone of inhibition by measuring activity index after 24 to 48 hrs by well diffusion method relative to ampicillin).
Format: functional, organism-based
With “(2,2'-Bipyridine) trimethylstannyl 2-(4-methoxy-2-nitrophenylcarbamoyl)benzoate” the Activity_index was “inactive”.

What follows are substances tested on Streptococcus pyogenes (assay: Antibacterial activity against Streptococcus pyogenes assessed as zone of inhibition by measuring activity index after 24 to 48 hrs by well diffusion method relative to amoxicillin).
Format: functional, organism-based
In the case of “(2,2'-Bipyridine) trimethylstannyl 2-(4-methoxy-2-nitrophenylcarbamoyl)benzoate”, the Activity_index is reported as “inactive”.

The substances below were run on Staphylococcus epidermidis (assay: Antibacterial activity against Staphylococcus epidermidis assessed as zone of inhibition by measuring activity index after 24 to 48 hrs by well diffusion method relative to tetracycline).
Format: functional, organism-based
Substance “(2,2'-Bipyridine) trimethylstannyl 2-(4-methoxy-2-nitrophenylcarbamoyl)benzoate” has an Activity index of 2.33.

Each substance was assayed on Staphylococcus epidermidis (assay: Antibacterial activity against Staphylococcus epidermidis assessed as zone of inhibition by measuring activity index after 24 to 48 hrs by well diffusion method relative to penicillin G).
Format: functional, organism-based
For “(1,10-Phenanthroline) trimethylstannyl 2-(4-methoxy-2-nitrophenylcarbamoyl)benzoate”, the Activity_index was “inactive”.

Each substance was assayed on Staphylococcus epidermidis (assay: Antibacterial activity against Staphylococcus epidermidis assessed as zone of inhibition by measuring activity index after 24 to 48 hrs by well diffusion method relative to ampicillin).
Format: functional, organism-based
In the case of “(1,10-Phenanthroline) trimethylstannyl 2-(4-methoxy-2-nitrophenylcarbamoyl)benzoate”, the Activity_index is reported as “inactive”.

These substances were tested on Staphylococcus epidermidis (assay: Antibacterial activity against Staphylococcus epidermidis assessed as zone of inhibition by measuring activity index after 24 to 48 hrs by well diffusion method relative to amoxicillin).
Format: functional, organism-based
“(2,2'-Bipyridine) trimethylstannyl 2-(4-methoxy-2-nitrophenylcarbamoyl)benzoate” showed an Activity index of 11.7.

The substances below were run on Serratia marcescens (assay: Antibacterial activity against Serratia marcescens assessed as zone of inhibition by measuring activity index after 24 to 48 hrs by well diffusion method relative to penicillin G).
Format: functional
“(1,10-Phenanthroline) trimethylstannyl 2-(4-methoxy-2-nitrophenylcarbamoyl)benzoate” was tested, and the Activity index was 2.5. In the case of “(2,2'-Bipyridine) trimethylstannyl 2-(4-methoxy-2-nitrophenylcarbamoyl)benzoate”, the Activity index is reported as 2.42.

The substances below were run on Serratia marcescens (assay: Antibacterial activity against Serratia marcescens assessed as zone of inhibition by measuring activity index after 24 to 48 hrs by well diffusion method relative to ampicillin).
Format: functional
Work on “(1,10-Phenanthroline) trimethylstannyl 2-(4-methoxy-2-nitrophenylcarbamoyl)benzoate” yielded an Activity index of 2.5. Substance “(2,2'-Bipyridine) trimethylstannyl 2-(4-methoxy-2-nitrophenylcarbamoyl)benzoate” has an Activity index of 2.42.

The substances below were run on Serratia marcescens (assay: Antibacterial activity against Serratia marcescens assessed as zone of inhibition by measuring activity index after 24 to 48 hrs by well diffusion method relative to amoxicillin).
Format: functional
In the case of “(1,10-Phenanthroline) trimethylstannyl 2-(4-methoxy-2-nitrophenylcarbamoyl)benzoate”, the Activity index is reported as 3.34. For “(2,2'-Bipyridine) trimethylstannyl 2-(4-methoxy-2-nitrophenylcarbamoyl)benzoate”, the Activity index was 3.22.

These substances were tested on Pseudomonas aeruginosa (assay: Antibacterial activity against Pseudomonas aeruginosa assessed as zone of inhibition by measuring activity index after 24 to 48 hrs by well diffusion method relative to tetracycline).
Format: functional, organism-based
“(1,10-Phenanthroline) trimethylstannyl 2-(4-methoxy-2-nitrophenylcarbamoyl)benzoate” was tested, and the Activity index was 1.89. “(2,2'-Bipyridine) trimethylstannyl 2-(4-methoxy-2-nitrophenylcarbamoyl)benzoate” showed an Activity index of 3.39.

The substances below were run on Pseudomonas aeruginosa (assay: Antibacterial activity against Pseudomonas aeruginosa assessed as zone of inhibition by measuring activity index after 24 to 48 hrs by well diffusion method relative to penicillin G).
Format: functional, organism-based
“(1,10-Phenanthroline) trimethylstannyl 2-(4-methoxy-2-nitrophenylcarbamoyl)benzoate” was tested, and the Activity index was 1.89. In the case of “(2,2'-Bipyridine) trimethylstannyl 2-(4-methoxy-2-nitrophenylcarbamoyl)benzoate”, the Activity index is reported as 3.39.

Each substance was assayed on Pseudomonas aeruginosa (assay: Antibacterial activity against Pseudomonas aeruginosa assessed as zone of inhibition by measuring activity index after 24 to 48 hrs by well diffusion method relative to amoxicillin).
Format: functional, organism-based
With “(1,10-Phenanthroline) trimethylstannyl 2-(4-methoxy-2-nitrophenylcarbamoyl)benzoate” the Activity index was 1.89. With “(2,2'-Bipyridine) trimethylstannyl 2-(4-methoxy-2-nitrophenylcarbamoyl)benzoate” the Activity index was 3.39.

What follows are substances tested on Escherichia coli (assay: Antibacterial activity against Escherichia coli assessed as zone of inhibition by measuring activity index after 24 to 48 hrs by well diffusion method relative to tetracycline).
Format: functional
“(1,10-Phenanthroline) trimethylstannyl 2-(4-methoxy-2-nitrophenylcarbamoyl)benzoate” was tested, and the Activity index was 10.3. Substance “(2,2'-Bipyridine) trimethylstannyl 2-(4-methoxy-2-nitrophenylcarbamoyl)benzoate” has an Activity index of 8.83.

Each substance was assayed on DNA (assay: Binding affinity to single-stranded DNA (unknown origin) after 10 mins by UV-visible spectrometric method).
Format: nucleic-acid assay
With “(1,10-Phenanthroline) trimethylstannyl 2-(4-methoxy-2-nitrophenylcarbamoyl)benzoate” the K was 2.5 ×10⁴ /M. Work on “(2,2'-Bipyridine) trimethylstannyl 2-(4-methoxy-2-nitrophenylcarbamoyl)benzoate” yielded a K of 1.2 ×10⁴ /M.

What follows are substances tested on NCI-H157 (assay: Cytotoxicity against human NCI-H157 cells after 48 hrs by sulforhodamine B assay).
Format: functional, cell-based
“(1,10-Phenanthroline) trimethylstannyl 2-(4-methoxy-2-nitrophenylcarbamoyl)benzoate” was tested, and the Activity was “Dose-dependent effect”. In the case of “(2,2'-Bipyridine) trimethylstannyl 2-(4-methoxy-2-nitrophenylcarbamoyl)benzoate”, the Activity is reported as “Dose-dependent effect”.

The substances below were run on DNA (assay: Binding affinity to single-stranded DNA (unknown origin) assessed as red shift up to 72 uM after 10 mins by UV-visible spectrometric method).
Format: nucleic-acid assay
Work on “(1,10-Phenanthroline) trimethylstannyl 2-(4-methoxy-2-nitrophenylcarbamoyl)benzoate” yielded an Activity of under 3 nm. “(2,2'-Bipyridine) trimethylstannyl 2-(4-methoxy-2-nitrophenylcarbamoyl)benzoate” showed an Activity of under 3 nm.
